Test results published in PMC8512147, “Multifunctional Small Molecules as Potential Anti-Alzheimer’s Disease Agents” (Molecules, 2021).

Key:
[1] = Radical scavenging activity, DPPH method; format: biochemical; conditions: MeOH, 30 min, r.t., mean ± SD of 3 independent experiments
Text: Commercial ferulic acid (FA) and all the newly synthesized compounds 1a–e were studied for their radical scavenging activity, following the protocol previously reported. The activity of each compound is expressed as EC50 and is related to its interaction with the free stable radical 2,2-diphenyl-1-picrylhydrazyl (DPPH•).
For the physicochemical and biological studies, analytical grade reagents and solvents were supplied by Sigma-Aldrich (St. Louis, MO, USA), Fluka (Buchs, Switzerland) and Acros (Geel, Belgium). They were used as received without any purification. The antioxidant activity assay was performed in a quartz cell of 1 cm path length with a Perkin-Elmer Lambda 35 UV–Vis spectrophotometer equipped with a temperature programmer PTP1+1 Peltier System (T = 25.0 ± 0.1 °C).
Compounds were evaluated for their radical scavenging activity by the Blois method using DPPH (2,2-diphenyl-1-picrylhydrazyl), a stable free-radical. It absorbs in methanol solution at 517–520 nm and it is a scavenger for other radicals converting itself in the reduced form DPPHH. The assay consists of preparing solutions of increasing concentration of each compound starting from a stock solution (2–3 × 10^−4 M), adding to them 2.5 mL DPPH (0.002% in MeOH, 50–100 µM) and the necessary volume of MeOH to reach the final volume 3.5 mL for each sample. The control sample was made up of DPPH and MeOH. Solutions were protected from light at r.t. for 30 min and then absorbance was measured at 517 nm with a Perkin Elmer Lambda 35 UV–Vis spectrophotometer, using methanolic solution as the blank in the other cell. All the studied compounds have good solubility in MeOH, so their solutions could be prepared. The assay was repeated three times for all compounds and the antioxidant activity, expressed as EC50, was calculated by Equation (1). %AA = ((ADPPH − Asample)/ADPPH) × 100,(1)

[2] = Fe^3+ complexation, potentiometric / spectrophotometric titration; format: physicochemical; conditions: for log β (FemHhLl), species (101) / log β (FemHhLl), species (102): pH-potentiometric (FA), UV–Vis (1a, 1d); for pM (Fe^3+), pM = −log [M]: pH 7.4, CL/CM = 10, CM = 10^−6 M
Text: (§1) The chelating ability of FA and of selected compounds 1a and 1d was studied by using the same experimental techniques (potentiometry, UV–Vis spectrophotometry) and experimental medium used for the titration of the ligand alone (20% w/w DMSO/water).
(§2) Alterations in the deprotonation profiles of the ligand titration curves due to the presence of the metal ions are evident in Figure 2, since the curves for the M/L systems appear well below that of FA for a > −1 (M = Fe) or a > 0 (M = Cu). This evidence supports the formation of metal complexes with the deprotonated (L^−) and mono-protonated (HL) forms of the ligand, whose stability order (Fe > Cu) follows the expected trend. Equilibrium models obtained from the fitting analysis of the potentiometric curves (M = Fe, Cu) and the UV–Vis spectral data (M = Fe, Cu) are reported in Table 2.
(§3) Both compounds 1a and 1d have similar chelating capacities towards iron and copper, which are also analogous to those of FA.
(§4) As concerns the metal chelation studies, potassium hydrogen phthalate (C8H5KO4, p.a.) was acquired from BDH, whereas dimethylsulfoxide (DMSO, dried, p.a.) and potassium chloride (KCl, p.a.) were supplied by Sigma-Aldrich. Aqueous solutions of metal ions were prepared starting from 1000 ppm standards (Titrisol, Sigma-Aldrich), to obtain solutions FeCl3 0.018 M and CuCl2 0.015 M. The metal content of solutions was evaluated by atomic absorption. Iron stock solution was prepared with an excess of acid chloride to avoid hydrolysis and its concentration in HCl was determined by the usual standard-addition method using 0.1M HCl (Titrisol). The 0.1M HCl solution, used in calibration of the glass electrode and in spectrophotometric titrations, was prepared from a Titrisol ampoule. The titrant was prepared from carbonate free commercial concentrate (Titrisol, KOH 0.1 M ampoules). The KOH solution was standardized by titration with a solution of potassium hydrogen phthalate using Gran’s method and it was rejected when the percentage of carbonate was greater than 0.5% of the total amount of base. The potentiometric studies were performed with an automated potentiometric apparatus controlled by PASAT program and containing a Crison micropH 2002 millivoltmeter, a Crison microBu 2031 burette and a Haake thermostatic bath (T = 25.0 ± 0.1 °C). The spectrophotometric titrations were carried out with a Perkin-Elmer Lambda 35 spectrophotometer.
(§5) Both glass and Ag/AgCl reference electrodes were previously conditioned in different DMSO/H2O mixtures of increasing DMSO % concentration and the response of the glass electrode was evaluated by strong acid–strong base (HCl/KOH) calibrations with the determination of the Nernst parameters by Gran’s method. […] The spectrophotometric measurements were carried out in a 250–450 nm wavelength range at pH ca. 2.5–11.8. Under the stated experimental conditions, the pKw value (14.27) was determined and subsequently used in the computations. The stepwise protonation constants of the ligands, Ki = [HiL]/[Hi-1L][H], and the overall metal complex stability constants, β (MmHhLl) = [MmHhLl]/[M]^m[H]^h[L]^l, were calculated by fitting the pH-potentiometric and spectrophotometric data with, respectively, the Hyperquad 2008 [41] and Psequad programs. The metal hydrolysis model was determined under the defined experimental conditions (I = 0.1 M KCl, 20% w/w DMSO/H2O, T = 25.0 ± 0.1 °C) and the following values of stability constants were included in the fitting of experimental data towards the equilibrium models related to the Fe^3+/L and Cu^2+/L systems: log β (FeH-2) = −6.78, log β (FeH-3) = −10.78; log β (Cu2H-2) = −9.94. The species distribution curves were obtained with the Hyss program.

[3] = Protonation constants by pH-potentiometric / UV–Vis spectrophotometric titration; format: physicochemical; conditions: pH 7.4, CL = 10^−5 M
Method: As concerns the metal chelation studies, potassium hydrogen phthalate (C8H5KO4, p.a.) was acquired from BDH, whereas dimethylsulfoxide (DMSO, dried, p.a.) and potassium chloride (KCl, p.a.) were supplied by Sigma-Aldrich. Aqueous solutions of metal ions were prepared starting from 1000 ppm standards (Titrisol, Sigma-Aldrich), to obtain solutions FeCl3 0.018 M and CuCl2 0.015 M. The metal content of solutions was evaluated by atomic absorption. Iron stock solution was prepared with an excess of acid chloride to avoid hydrolysis and its concentration in HCl was determined by the usual standard-addition method using 0.1M HCl (Titrisol). The 0.1M HCl solution, used in calibration of the glass electrode and in spectrophotometric titrations, was prepared from a Titrisol ampoule. […]
The spectrophotometric measurements were carried out in a 250–450 nm wavelength range at pH ca. 2.5–11.8. Under the stated experimental conditions, the pKw value (14.27) was determined and subsequently used in the computations. […] The metal hydrolysis model was determined under the defined experimental conditions (I = 0.1 M KCl, 20% w/w DMSO/H2O, T = 25.0 ± 0.1 °C) and the following values of stability constants were included in the fitting of experimental data towards the equilibrium models related to the Fe^3+/L and Cu^2+/L systems: log β (FeH-2) = −6.78, log β (FeH-3) = −10.78; log β (Cu2H-2) = −9.94. […]

[4] = Cu^2+ complexation, potentiometric / spectrophotometric titration; format: physicochemical; conditions: for log β (CumHhLl), species (1–12) / log β (CumHhLl), species (101): UV–Vis (1a, 1d); for pM (Cu^2+), pM = −log [M]: pH 7.4, CL/CM = 10, CM = 10^−6 M
Text: as §1, §2, §3, §4, §5

[5] = T = 25.0 ± 0.1 °C, I = 0.1 M KCl, 20% w/w DMSO/water
[6] = T = 25.0 ± 0.1 °C, I = 0.1 M KCl, 20% w/w DMSO/water, pH-potentiometric (FA)

## COc1cc(/C=C/C(=O)NOCc2cccc(Cl)c2)ccc1O [Compound 1d, (E)-N-((3-chlorobenzyl)oxy)-3-(4-hydroxy-3-methoxyphenyl)acrylamide]
[1]
  EC50: 33 ± 1 µM
[2]; [5]
  log β (FemHhLl), species (1–22): 8.50(5)
  log β (FemHhLl), species (101): 15.42(7)
  log β (FemHhLl), species (102): 25.43(5)
[2]
  pM (Fe^3+), pM = −log [M]: 18.2
[3]
  predominant species neutral HL at physiological conditions: 97%
[4]; [6]
  log β (CumHhLl), species (1–12): 2.20(8)
  log β (CumHhLl), species (101): 7.49(7)
[4]; T = 25.0 ± 0.1 °C, I = 0.1 M KCl, 20% w/w DMSO/water, pH-potentiometric (FA), UV–Vis (1d)
  log β (CumHhLl), species (102): 12.14(7)
[4]
  pM (Cu^2+), pM = −log [M]: 7.0
other
  melting point: 47 to 48 °C

## COc1cc(/C=C/C(=O)NOCc2ccccc2OC)ccc1O [Compound 1a, (E)-3-(4-hydroxy-3-methoxyphenyl)-N-((2-methoxybenzyl)oxy)acrylamide]
[1]
  EC50: 34 ± 1 µM
[2]; [5]
  log β (FemHhLl), species (101): 16.49(3)
  log β (FemHhLl), species (102): 23.69(4)
[2]
  pM (Fe^3+), pM = −log [M]: 17.6
[2]; pH ca. 2, species distribution
  FeL in the Fe^3+/L system: 100%
[3]
  predominant species neutral HL at physiological conditions: 96%
[4]; T = 25.0 ± 0.1 °C, I = 0.1 M KCl, 20% w/w DMSO/water, UV–Vis spectrophotometric data
  log β (CumHhLl), species (1–21): −13.16(7)
[4]; [6]
  log β (CumHhLl), species (1–12): 1.12(5)
  log β (CumHhLl), species (101): 6.27(7)
[4]
  pM (Cu^2+), pM = −log [M]: 6.3
other
  melting point: 58 °C
